The test relates to BDF1 mice, P388 leukemia ip, median survival T/C. The test is described as follows: NCI In Vivo Anticancer Drug Screen. Data for tumor model P388 Leukemia (intraperitoneal) in B6D2F1 (BDF1) mice. Conditions: endpoint: median survival time, higher = longer survival. An outline of the steps: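 In tumour-bearing mice, survival after compound treatment is set against the vehicle group and given as a quotient.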

[1] abbreviates: dose: 25.0 mg/kg/injection, schedule: Q01DX009 (ip), vehicle: saline with Tween-80.
Where [2] appears, read: dose: 50.0 mg/kg/injection, schedule: Q01DX009 (ip), vehicle: saline with Tween-80.
Where [3] appears, read: dose: 100.0 mg/kg/injection, schedule: Q01DX009 (ip), vehicle: saline with Tween-80.
The mark [4] stands for this setting: dose: 100.0 mg/kg/injection, schedule: Q04DX003 (ip), vehicle: saline with Tween-80.
The mark [5] stands for this setting: dose: 200.0 mg/kg/injection, schedule: Q04DX003 (ip), vehicle: saline with Tween-80.
[6] abbreviates: dose: 50.0 mg/kg/injection, schedule: Q01DX009 (ip), vehicle: saline.
The mark [7] stands for this setting: dose: 100.0 mg/kg/injection, schedule: Q01DX009 (ip), vehicle: saline.
The mark [8] stands for this setting: dose: 200.0 mg/kg/injection, schedule: Q01DX009 (ip), vehicle: saline with Tween-80.
Where [9] appears, read: dose: 25.0 mg/kg/injection, schedule: Q01DX009 (ip), vehicle: Klucel (hydroxypropylcellulose) (HPC).
Where [10] appears, read: dose: 100.0 mg/kg/injection, schedule: Q01DX009 (ip), vehicle: Klucel (hydroxypropylcellulose) (HPC).

Values joined by “and” are separate entries in the source; they are usually repeats but may differ in a detail not shown here. Equal entries are not always repeated. Toxic doses and inconclusive results are not listed.

Our source for the T/C values is PubChem BioAssay AID328 (DTP/NCI, 2004).

Take `O=P(N1CCCCCC1)(N1CC1)N1CC1`: the T/C (dose: 5.0 mg/kg/injection, schedule: Q01DX009 (ip), vehicle: saline) is 168 % of control; the T/C (dose: 6.25 mg/kg/injection, schedule: Q04DX003 (ip), vehicle: saline) is 95 % of control; the T/C (dose: 7.0 mg/kg/injection, schedule: Q04DX003 (ip), vehicle: saline) is 112 % of control; the T/C (dose: 8.0 mg/kg/injection, schedule: Q01DX009 (ip), vehicle: saline) was 157 % of control and 222 % of control; the T/C (dose: 11.0 mg/kg/injection, schedule: Q04DX003 (ip), vehicle: saline) was 150 % of control; the T/C (dose: 16.5 mg/kg/injection, schedule: Q04DX003 (ip), vehicle: saline) was 180 % of control. The T/C reads like this: (dose: 17.0 mg/kg/injection, schedule: Q04DX003 (ip), vehicle: saline) 166 % of control and 181 % of control; (dose: 25.0 mg/kg/injection, schedule: Q04DX003 (ip), vehicle: saline) 218 % of control [middle of 4 runs]; (dose: 50.0 mg/kg/injection, schedule: Q04DX003 (ip), vehicle: saline) 162 % of control.

In the case of `CC(=O)[C@H]1CC[C@H]2[C@@H]3CCC4=CC(=O)[C@H](C)C[C@]4(C)[C@@]3(F)[C@@H](O)C[C@]12C`, the T/C under setting [1] is 100 % of control; the T/C under setting [2] is 100 % of control; the T/C under setting [3] was 95 % of control and 104 % of control; the T/C under setting [4] is 100 % of control; the T/C under setting [5] was 100 % of control; the T/C (dose: 400.0 mg/kg/injection, schedule: Q04DX003 (ip), vehicle: saline with Tween-80) is 90 % of control.

With `O=C1CSC(C23CC4CC(CC(C4)C2)C3)N1c1nccs1` (stereo unspecified), the T/C is 92 % of control under setting [2] and 90 % of control under setting [3].

Regarding `Cc1nc2ccc(O)cc2cc1CO`, the T/C by setting is: (dose: 25.0 mg/kg/injection, schedule: Q01DX009 (ip), vehicle: saline) 95 % of control; under setting [6], 100 % of control; under setting [7], 99 % of control; (dose: 200.0 mg/kg/injection, schedule: Q01DX009 (ip), vehicle: saline) 109 % of control; (dose: 400.0 mg/kg/injection, schedule: Q01DX009 (ip), vehicle: saline) 111 % of control.

`CC1CCC2CON(C(C)(C)C)C2C1` (stereo unspecified): the T/C is 100 % of control under setting [2] and 100 % of control under setting [3].

For `CN(C)CCCCc1cn(-c2ccccc2)c2ccccc12`, the T/C was 105 % of control (dose: 12.5 mg/kg/injection, schedule: Q01DX009 (ip), vehicle: saline); 100 % of control (dose: 27.5 mg/kg/injection, schedule: Q01DX001 (ip), vehicle: saline); 109 % of control (dose: 33.0 mg/kg/injection, schedule: Q01DX009 (ip), vehicle: saline); 104 % of control under setting [6]; 108 % of control (dose: 55.0 mg/kg/injection, schedule: Q01DX001 (ip), vehicle: saline); 108 % of control (dose: 110.0 mg/kg/injection, schedule: Q01DX001 (ip), vehicle: saline).

On to `O=C(c1ccccc1)C1(C(=O)c2ccccc2)c2ccccc2-c2ccccc21`, for which the T/C was 101 % of control (dose: 50.0 mg/kg/injection, schedule: Q01DX005 (ip), vehicle: Klucel (hydroxypropylcellulose) (HPC)); 104 % of control (dose: 100.0 mg/kg/injection, schedule: Q01DX005 (ip), vehicle: Klucel (hydroxypropylcellulose) (HPC)); 101 % of control (dose: 200.0 mg/kg/injection, schedule: Q01DX005 (ip), vehicle: Klucel (hydroxypropylcellulose) (HPC)).

With `CCCCNC(C)(C)C(=O)c1ccco1`, the T/C by setting is: under setting [4], 86 % of control; under setting [5], 100 % of control.

As to `Cc1csc2ccccc12`, the T/C is 111 % of control (dose: 12.5 mg/kg/injection, schedule: Q01DX009 (ip), vehicle: saline with Tween-80); 102 % of control under setting [1]; 119 % of control under setting [2].

Turning to `CC(/C=C/C1(C)C(C)CCC(=O)C1C)=C\Cc1c(O)c(Cl)c(C)c(C=O)c1O` (stereo unspecified), the T/C runs as follows: (dose: 12.5 mg/kg/injection, schedule: Q04DX003 (ip), vehicle: saline with Tween-80) 92 % of control; (dose: 25.0 mg/kg/injection, schedule: Q04DX003 (ip), vehicle: saline with Tween-80) 90 % of control.

Consider `ClCC1CCN(CCc2ccccc2)CC1`, for which the T/C is, setting by setting: under setting [6], 95 % of control; under setting [7], 99 % of control.

On to `CC1=CC(=O)NC1=O`, for which the T/C (dose: 4.3 mg/kg/injection, schedule: Q01DX009 (ip), vehicle: saline) was 114 % of control; the T/C (dose: 6.4 mg/kg/injection, schedule: Q01DX009 (ip), vehicle: saline) is 102 % of control; the T/C (dose: 9.6 mg/kg/injection, schedule: Q01DX009 (ip), vehicle: saline) is 117 % of control; the T/C (dose: 14.0 mg/kg/injection, schedule: Q01DX009 (ip), vehicle: saline) is 123 % of control.

For `Cn1c(=O)c(S(C)=O)c(O)c2ccccc21` (stereo unspecified), the T/C by setting is: under setting [2], 118 % of control; under setting [3], 100 % of control; under setting [8], 112 % of control.

For the compound `Cc1nc2ccccc2c(Cl)c1C`, the T/C runs as follows: under setting [9], 102 % of control; (dose: 50.0 mg/kg/injection, schedule: Q01DX009 (ip), vehicle: Klucel (hydroxypropylcellulose) (HPC)) 105 % of control; under setting [10], 103 % of control.

Consider `CC(=O)c1cccc(OCc2ccccc2)c1`, for which the T/C is 118 % of control (dose: 100.0 mg/kg/injection, schedule: Q01DX009 (ip), vehicle: other); 100 % of control (dose: 100.0 mg/kg/injection, schedule: Q04DX003 (ip), vehicle: other); 95 % of control (dose: 200.0 mg/kg/injection, schedule: Q01DX009 (ip), vehicle: other); 95 % of control (dose: 200.0 mg/kg/injection, schedule: Q04DX003 (ip), vehicle: other); 109 % of control (dose: 400.0 mg/kg/injection, schedule: Q01DX009 (ip), vehicle: other); 116 % of control (dose: 400.0 mg/kg/injection, schedule: Q04DX003 (ip), vehicle: other).

With `CN(C)c1ccc(-c2c3ccccc3nc3ccccc23)cc1`, the T/C is, setting by setting: under setting [2], 107 % of control; under setting [3], 115 % of control; under setting [8], 106 % of control.

In the case of `O=C(/C=C\c1ccc2c(c1)OCO2)/C=C/c1ccc2c(c1)OCO2`, the T/C is 104 % of control under setting [10]; 100 % of control (dose: 100.0 mg/kg/injection, schedule: Q04DX003 (ip), vehicle: saline sonified); 100 % of control (dose: 200.0 mg/kg/injection, schedule: Q01DX009 (ip), vehicle: Klucel (hydroxypropylcellulose) (HPC)); 109 % of control (dose: 200.0 mg/kg/injection, schedule: Q04DX003 (ip), vehicle: saline sonified); 95 % of control (dose: 400.0 mg/kg/injection, schedule: Q01DX009 (ip), vehicle: Klucel (hydroxypropylcellulose) (HPC)); 100 % of control (dose: 400.0 mg/kg/injection, schedule: Q04DX003 (ip), vehicle: saline sonified).

On to `CN(C)CCSC1=CC(=O)c2ccccc2C1=O`, for which the T/C by setting is: (dose: 0.19 mg/kg/injection, schedule: Q01DX009 (ip), vehicle: water) 116 % of control; (dose: 0.19 mg/kg/injection, schedule: Q04DX003 (ip), vehicle: water) 95 % of control; (dose: 0.39 mg/kg/injection, schedule: Q01DX009 (ip), vehicle: water) 109 % of control; (dose: 0.39 mg/kg/injection, schedule: Q04DX003 (ip), vehicle: water) 105 % of control; (dose: 0.78 mg/kg/injection, schedule: Q01DX009 (ip), vehicle: water) 110 % of control; (dose: 0.78 mg/kg/injection, schedule: Q04DX003 (ip), vehicle: water) 104 % of control. The T/C (dose: 1.56 mg/kg/injection, schedule: Q01DX009 (ip), vehicle: water) is 109 % of control; the T/C (dose: 1.56 mg/kg/injection, schedule: Q04DX003 (ip), vehicle: water) was 106 % of control; the T/C (dose: 3.12 mg/kg/injection, schedule: Q04DX003 (ip), vehicle: water) is 95 % of control.

For the compound `COC1=CC=C2C3Cc4ccc(OC)c(O)c4C2(C1)CN3C` (stereo unspecified), the T/C is 87 % of control (dose: 3.12 mg/kg/injection, schedule: Q01DX009 (ip), vehicle: Klucel (hydroxypropylcellulose) (HPC)); 87 % of control (dose: 6.25 mg/kg/injection, schedule: Q01DX009 (ip), vehicle: Klucel (hydroxypropylcellulose) (HPC)); 100 % of control under setting [9].

Regarding `O=C(O)CCN1C(=O)c2ccccc2C1=O`, the T/C under setting [3] is 90 % of control and the T/C under setting [8] was 100 % of control.
